Paper PMC6259141, “Phytochemical and Cytotoxic Investigations of Alpinia mutica Rhizomes” (Molecules, 2011)
Values after ≈ are worked out from the molar mass of the structure shown.

Key:
[1] = system: A549 (lung carcinoma cell line); assay: in vitro neutral red cytotoxicity assay, A549; type: cell-based; conditions: Homo sapiens, A549 cells, averaged from three experiments, read-out: Cytotoxic activity IC50, A549
Description: (§1) The in vitro cytotoxic activity was studied by the neutral red cytotoxicity assay [5]. KB (epidermoid carcinoma cell line), MCF7 (hormone-dependent breast carcinoma cell line), A549 (lung carcinoma cell line), CaSki (cervical carcinoma cell line), HCT116 (colon carcinoma cell line), HT29 (colon carcinoma cell line) and non-human fibroblast cell line (MRC 5) were purchased from the American Tissue Culture Collection (ATCC).

[2] = system: HT29 (colon carcinoma cell line); assay: in vitro neutral red cytotoxicity assay, HT29; type: cell-based; conditions: Homo sapiens, HT-29, HT29 cells, averaged from three experiments, read-out: Cytotoxic activity IC50, HT29
Description: as §1

[3] = system: MCF7 (hormone-dependent breast carcinoma cell line); assay: in vitro neutral red cytotoxicity assay, MCF7; conditions: Homo sapiens, MCF7, read-out: Cytotoxic activity IC50, MCF7
Description: as §1

[4] = in vitro neutral red cytotoxicity assay, MRC5; conditions: human, MRC5 fibroblast cells (normal, non-cancer)
Description: as §1

[5] = system: CaSki (cervical carcinoma cell line); assay: in vitro neutral red cytotoxicity assay, CaSki; conditions: Homo sapiens, Ca-Ski, read-out: Cytotoxic activity IC50, CaSki
Description: as §1

[6] = system: HCT116 (colon carcinoma cell line); assay: in vitro neutral red cytotoxicity assay, HCT116; conditions: Homo sapiens, HCT-116, read-out: Cytotoxic activity IC50, HCT116
Description: as §1

[7] = system: KB (epidermoid carcinoma cell line); assay: in vitro neutral red cytotoxicity assay, KB; conditions: Homo sapiens, read-out: Cytotoxic activity IC50, KB
Description: as §1

[8] = system: KB (epidermoid carcinoma cell line)
Description: as §1

[9] = system: MCF7 (hormone-dependent breast carcinoma cell line)
Description: as §1

[10] = system: CaSki (cervical carcinoma cell line)
Description: as §1

[11] = system: HCT116 (colon carcinoma cell line)
Description: as §1

[12] = system: MRC5 fibroblast cell line (non-cancer)
Description: as §1

COc1cccc2c1C(=O)c1c(O)c3c(c(O)c1C2=O)C[C@@](O)(C(=O)CO)C[C@@H]3O[C@H]1C[C@H](N)[C@H](O)[C@H](C)O1 [Doxorubicin, reference compound]
IC50 [1]: 0.58 ± 0.01 µg/mL (≈ 1.07 µM) | IC50 [2]: 0.33 ± 0.03 µg/mL (≈ 0.607 µM) | IC50 [3]: 0.05 ± 0.01 µg/mL (≈ 0.092 µM) | IC50 [4]: 0.4 ± 0.03 µg/mL (≈ 0.736 µM) | IC50 [5]: 0.18 ± 0.06 µg/mL (≈ 0.331 µM) | IC50 [6]: 0.24 ± 0.04 µg/mL (≈ 0.442 µM)

COc1cc(O)c(C(=O)/C=C/c2ccccc2)c(OC)c1 [Flavokawin B (1), flavokawin B]
IC50 [7]: 5.7 ± 0.4 µg/mL (≈ 20 µM) | IC50 [3]: 49.3 ± 1.8 µg/mL (≈ 173 µM) | IC50 [4]: 17.2 ± 0.5 µg/mL (≈ 60.5 µM) | IC50 [5]: 31.1 ± 1.3 µg/mL (≈ 109 µM) | IC50 [6]: 6.4 ± 0.2 µg/mL (≈ 22.5 µM)

COc1cc(O)c(C(=O)/C=C/c2ccccc2)c(O)c1 [Pinostrobin chalcone (3), pinostrobin chalcone]
IC50 [7]: 6.2 ± 0.2 µg/mL (≈ 22.9 µM) | IC50 [3]: 7.3 ± 0.6 µg/mL (≈ 27 µM) | IC50 [4]: 7.9 ± 0.8 µg/mL (≈ 29.2 µM) | IC50 [5]: 7.7 ± 0.2 µg/mL (≈ 28.5 µM) | IC50 [6]: 54.1 ± 4.6 µg/mL (≈ 200 µM)

alpinetin [Alpinetin (4)]
Cytotoxic activity IC50, KB [8]: >100 µg/mL | Cytotoxic activity IC50, MCF7 [9]: > 100 µg/mL | Cytotoxic activity IC50, CaSki [10]: >100 µg/mL | Cytotoxic activity IC50, HCT116 [11]: 39.6 ± 2.0 µg/mL | Cytotoxic activity IC50, MRC5 [12]: > 100 µg/mL
